Key:
Format in all cases: in vivo
Avena = experiment: Herbicidal action before emergence of the plants (pre-emergent action); settings: 2000 g of active substance/ha, sprayed immediately after sowing, evaluated after 3 weeks, ratings scale of nine levels (1=complete damage, 9=no action)
Method: (§1) Monocotyledon and dicotyledon test plants are sown in standard soil in plastic pots. Immediately after sowing, the test substances are sprayed on (500 l of water/ha) in an aqueous suspension prepared from a 25% wettable powder (Example F3, b)), corresponding to a dosage of 2000 g of active substance/ha. The test plants are then grown under optimum conditions in a greenhouse. After a test period of 3 weeks, the test is evaluated with a ratings scale of nine levels (1=complete damage, 9=no action). Ratings of 1 to 4 (in particular 1 to 3) mean a good to very good herbicidal action.
(§2) Test plants: Avena, Setaria, Sinapis, Stellaria

Sinapis [1] = experiment: Post-emergent herbicidal action (contact herbicide); design: key: 1=complete damage; 9=no action; Ratings of 1 to 4 (in particular 1 to 3) mean a good to very good herbicidal action; settings: 2000 g of active substance/ha, sprayed in the 4- to 6-leaf stage, evaluated after about 18 days, ratings scale 1-9
Method: (§3) Monocotyledon and dicotyledon test plants are grown in plastic pots with standard soil in a greenhouse and, in the 4- to 6-leaf stage, are sprayed with an aqueous suspension of the test substances of the formula 1, prepared from a 25% wettable power (Example F3, b)), corresponding to a dosage of 2000 g of active substance/ha (500 l of water/ha). The test plants are then grown further in the greenhouse under optimum conditions. After a test period of about 18 days, the test is evaluated with a ratings scale of 9 levels (1=complete damage, 9=no action). Ratings of 1 to 4 (in particular 1 to 3) mean a good to very good herbicidal action.
(§4) Test plants: Sinapis, Stellaria

Stellaria [2] = experiment: as above; design: key: 1=complete damage; 9=no action; Ratings of 1 to 4 (in particular 1 to 3) mean a good to very good herbicidal action; settings: 2000 g of active substance/ha, sprayed in the 4- to 6-leaf stage, evaluated after about 18 days, ratings scale 1-9
Method: as §3, §4

Sinapis [3] = experiment: Herbicidal action before emergence of the plants (pre-emergent action); design: key: 1=complete damage; 9=no action; Ratings of 1 to 4 (in particular 1 to 3) mean a good to very good herbicidal action; settings: 2000 g of active substance/ha, sprayed immediately after sowing, evaluated after 3 weeks, ratings scale of nine levels
Method: as §1, §2

Stellaria [4] = experiment: as above; design: key: 1=complete damage; 9=no action; Ratings of 1 to 4 (in particular 1 to 3) mean a good to very good herbicidal action; settings: 2000 g of active substance/ha, sprayed immediately after sowing, evaluated after 3 weeks, ratings scale of nine levels
Method: as §1, §2

Setaria = experiment: as above; design: key: 1=complete damage; 9=no action; Ratings of 1 to 4 (in particular 1 to 3) mean a good to very good herbicidal action; settings: 2000 g of active substance/ha, sprayed immediately after sowing, evaluated after 3 weeks, ratings scale of nine levels
Method: as §1, §2

SMILES | Pre-emergent action, rating, Avena (Avena) | Post-emergent action, rating, Sinapis (Sinapis [1]) | Post-emergent action, rating, Stellaria (Stellaria [2]) | Pre-emergent action, rating, Sinapis (Sinapis [3]) | Pre-emergent action, rating, Stellaria (Stellaria [4]) | Pre-emergent action, rating, Setaria (Setaria)
NC1=NC(Oc2c(F)c(F)c(F)c(F)c2F)=NS(N2CCC[C@H]3CCC[C@H]32)=N1 (relative stereo) [6.27] | 4 | 2 | 3 | 2 | 1 | 3
CC1CC(OS2=NC(N)=NC(Oc3c(F)c(F)c(F)c(F)c3F)=N2)CC(C)(C)C1 (stereo not drawn) [5.78] | 3 | 2 | 3 | 2 | 1 | 2
CC1CCC(OS2=NC(N)=NC(Oc3c(F)c(F)c(F)c(F)c3F)=N2)CC1 (stereo not drawn) [5.326] | 4 | 2 | 4 | 1 | 1 | 4
CCC1CCCCN1S1=NC(N)=NC(Oc2c(F)c(F)c(F)c(F)c2F)=N1 (stereo not drawn) [6.30] | 3 | 2 | 3 | 1 | 1 | 2
CC1(C)CCC(OS2=NC(N)=NC(Oc3c(F)c(F)c(F)c(F)c3F)=N2)CC1 (stereo not drawn) [5.52] | 4 | 2 | 2 | 1 | 1 | 2
CC1CN(S2=NC(N)=NC(Oc3c(F)c(F)c(F)c(F)c3F)=N2)C2CCCCC12 (stereo not drawn) [6.295] | 3 | 1 | 3 | 1 | 1 | 1
CC1(C)CCCN(S2=NC(N)=NC(Oc3cc(F)ccc3F)=N2)C1 (stereo not drawn) [6.129] | 4 | 2 | 3 | 1 | 1 | 4
CC1CCC2C(CCN2S2=NC(N)=NC(Oc3c(F)c(F)c(F)c(F)c3F)=N2)C1 (stereo not drawn) [6.298] | 3 | 1 | 4 | 1 | 1 | 2
CC1CN(S2=NC(N)=NC(Oc3c(F)c(F)c(F)c(F)c3F)=N2)CCC(C)(C)C1 (single isomer, unassigned) [6.92] | 4 | 1 | 1 | 1 | 1 | 1
CC(OS1=NC(N)=NC(Oc2c(F)c(F)c(F)c(F)c2F)=N1)[Si](C)(C)C (stereo not drawn) [5.329] | 2 | 1 | 5 | 1 | 1 | 1
CC1CN(S2=NC(N)=NC(Oc3c(F)c(F)c(F)c(F)c3F)=N2)CCC(C)(C)C1 (single isomer, unassigned) [6.93] | 2 | 1 | 1 | 1 | 1 | 1
NC1=NC(Oc2cc(F)ccc2F)=NS(N2CCCC3CCCCC32)=N1 (stereo not drawn) [6.135] | 3 | 3 | 3 | 1 | 1 | 3
NC1=NS(N2CCCCCC2)=NC(Oc2c(F)c(F)cc(F)c2F)=N1 (stereo not drawn) [6.89] | 2 | 2 | 3 | 1 | 1 | 2
NC1=NS(N2CCCCCCCC2)=NC(Oc2c(F)c(F)cc(F)c2F)=N1 (stereo not drawn) [6.302] | 3 | 2 | 3 | 1 | 1 | 2
CC1CC2CCCCC2N(S2=NC(N)=NC(Oc3c(F)c(F)c(F)c(F)c3F)=N2)C1 (stereo not drawn) [6.292] | 5 | 2 | 3 | 1 | 1 | 1
CC1CC(C)CN(S2=NC(N)=NC(Oc3c(F)c(F)c(F)c(F)c3F)=N2)C1 (stereo not drawn) [6.124] | 3 | 2 | 3 | 1 | 1 | 1
CCCC(CC)OS1=NC(N)=NC(Oc2c(F)c(F)c(F)c(F)c2F)=N1 (stereo not drawn) [5.332] | 3 | 1 | 2 | 1 | 1 | 1
CN(Cc1ccc(Cl)nc1)S1=NC(N)=NC(Oc2c(F)c(F)c(F)c(F)c2F)=N1 (stereo not drawn) [6.170] | 3 | 2 | 3 | 4 | 1 | 4
CC1(C)CC2CC(C)(CN2S2=NC(N)=NC(Oc3c(F)c(F)c(F)c(F)c3F)=N2)C1 (single isomer, unassigned) [6.153] | 4 | 1 | 2 | 1 | 1 | 3
C[Si](C)(C)COS1=NC(N)=NC(Oc2c(F)c(F)c(F)c(F)c2F)=N1 (stereo not drawn) [5.321] | 3 | 2 | 2 | 1 | 1 | 1
NC1=NS(N2CCc3ccccc3C2)=NC(Oc2c(F)c(F)cc(F)c2F)=N1 (stereo not drawn) [6.173] | 4 | 2 | 3 | 1 | 1 | 3
NC1=NC(Oc2c(F)c(F)c(F)c(F)c2F)=NS(N2CCc3ccccc3CC2)=N1 (stereo not drawn) [6.200] | 4 | 2 | 2 | 1 | 1 | 1
